From PMC11975549, “Development of Potent Type V MAPK Inhibitors: Design, Synthesis, and Biological Evaluation of Benzothiazole Derivatives Targeting p38α MAPK in Breast Cancer Cells” (Archiv Der Pharmazie, 2025)

What was measured:
[1] = test system: MDA‐MB‐231 cells; test: MTT antiproliferative assay, MDA-MB-231; format: cell-based, human; conditions: for IC50: MTT, 24 h incubation; for Selectivity MDA‐MB‐231: Selectivity index = L929 IC50 / MDA‐MB‐231 IC50 (24 h)
Experimental: (§1) Cell culture experiments were performed to assess the antiproliferative efficacy of the synthesized benzothiazole compounds on the MCF7 and MDA‐MB‐231 cell lines. The anticancer activity of the compounds were compared with the L929 healthy cell line as a control. Doxorubicin and cisplatin, the anticancer agents, were employed as positive controls.
(§2) Human epithelial breast adenocarcinoma (MDA‐MB‐231) (ATCC® HTB‐26™), human epithelial breast adenocarcinoma (MCF7) (ATCC® HTB‐22™), and healthy mouse fibroblast (L929) (ATCC® CRL‐10317™) cells were obtained commercially from ATCC.
(§3) MDA‐MB‐231, MCF7, and L929 cells were seeded in 25 cm² flasks. DMEM medium containing 10% FBS, 1% Penicillin‐Streptomycin, L‐Glutamine, and NaHCO₃ was used as the cell culture medium. The cells were incubated and propagated at 37°C in an environment containing 5% CO₂ and 95% humidity. When the cells reached 80%–90% confluency, they were passaged to different media. During passaging, DMEM was first withdrawn, and the cells were washed with PBS to remove FBS from the medium. Then, Trypsin‐EDTA solution was added to the flask to detach the cells, and the flask was kept in a CO₂ incubator for approximately 1 min. To stop the activity of Trypsin‐EDTA medium containing FBS was added to the flask. The cells were collected into a Falcon tube and centrifuged at 800 rpm for 5 min at room temperature. The supernatant was discarded, and the cell pellet was resuspended in the medium and seeded on cell culture plates according to the experimental protocol.
(§4) A total of 2 mg of each compound was dissolved in an appropriate amount of dimethyl sulfoxide (DMSO) to prepare 10 mM stock solutions. These stock solutions were then diluted to create 100 μM intermediate stocks and stored at −80°C. Commercially purchased cisplatin and doxorubicin HCl (Sigma, St. Louis, MO) were dissolved in DMSO following the manufacturer's protocol to create 20 mM stock solutions. These standard drug molecules were diluted from the stock solution, divided into 100 μM aliquots, and stored at –80°C until use.
(§5) MTT analysis was performed to evaluate the in vitro cytotoxicity of the synthesized compounds against different cancer cell lines. Cells used in the cytotoxicity experiments were cultured in DMEM medium supplemented with 10% FBS. Cells suspended in the medium (2 × 10⁴ cells/mL) were seeded into 96‐well culture plates and incubated at 37°C in a 5% CO₂ incubator. After 12 h, compounds were added at different doses (2 µL) to cells (2 × 10⁴) in the 96‐well plates and incubated at 37°C for 24 h.
(§6) The incubated cells were then treated with 20 µL of MTT solution and incubated at 37°C for 4 h. The supernatant was carefully removed from each well, and 100 µL of DMSO was added to each well to dissolve the formazan crystals formed by the cellular reduction of MTT. The absorbance was measured at 570 nm using an ELISA reader. […] At the end of the experiment, the device calculated the IC50 value for each well, and the average values were recorded. Each experiment was performed in at least three replicates.

[2] = test system: MCF7 cells; test: MTT antiproliferative assay, MCF7; format: cell-based, human; conditions: for IC50: MTT, 24 h incubation; for Selectivity MCF7: Selectivity index = L929 IC50 / MCF7 IC50 (24 h)
Experimental: as §1, §2, §3, §4, §5, §6

[3] = test system: L929 cells; test: MTT cytotoxicity assay, L929 healthy cells; format: cell-based; conditions: healthy mouse fibroblast
Experimental: as §1, §2, §3, §4, §5, §6

[4] = test system: p38 MAPKα; test: p38 MAPK alpha ELISA, total level in treated MCF7 cells normalised to total protein (BCA); format: cell-based, human; conditions: MCF7 cells exposed to compound
Text: To account for variations in protein quantities among the cells. The total protein concentrations in cells subjected to the drugs were quantified. The p38 MAPKα levels were adjusted by dividing by the protein levels, yielding results represented as ng/μg protein (Table 3).
A bicinchoninic acid (BCA) protein assay kit (catalog no. 23227) was obtained from Thermo‐Fisher Scientific (IL, USA) and used to detect total protein by the BCA assay. In this assay, the reaction between BCA, Cu²⁺ ions, and Cu⁺ ions form a purple complex in alkaline conditions. The absorbance of this complex was measured at 562 nm, and the results were expressed in mg/mL.
The p38 MAPK alpha ELISA Kit (ab221012; Abcam, Cambridge, MA) was used to measure the levels of […] in cell lysates according to the manufacturer's instructions. The SimpleStep Enzyme‐Linked Immunosorbent Assay (ELISA) kit was designed to assess total p38 MAPKα protein semi‐quantitatively. The SimpleStep ELISA uses a reporter‐conjugated detection antibody, and an affinity‐tag labeled capture antibody to immunocapture the sample analyte in solution. An anti‐tag antibody coating the well immobilizes the entire complex (capture antibody, analyte, and detection antibody).
Samples or controls were added to the wells, followed by the Antibody Cocktail to complete the test. After incubation, the wells were washed to remove unbound material. […] The levels of MAPK were normalized to total protein content.

| Structure (SMILES) | IC50 [1] [µM] | Selectivity MDA‐MB‐231 [1] | IC50 [2] [µM] | Selectivity MCF7 [2] | IC50 ([3]; 24 h incubation) [µM] | IC50 ([1]; Homo sapiens, MDA-MB-231) [µM] | Total p38α MAPK levels [4] [ng/μg protein] | IC50 ([2]; Homo sapiens, MCF7) [µM] | IC50 ([3]; L929, 24 h incubation) [µM] |
| --- | --- | --- | --- | --- | --- | --- | --- | --- | --- |
| N.N.[Cl][Pt][Cl] [Cisplatin, reference compound] | 30.1 ± 1.39 | 1.195 | 7.03 ± 0.04 | 5.118 | 36 ± 2.01 |  |  |  |  |
| COc1ccc(C(=O)Nc2nc3ccccc3s2)cc1 [Compound 1, N‐(Benzo[d]thiazol‐2‐yl)‐4‐methoxybenzamide] |  | 1.549 |  | 2.227 |  | 15.8 ± 0.75 | 7.367 ± 1.291 | 11 ± 0.27 | 24.5 ± 0.56 |
| O=C(Nc1nc2ccccc2s1)c1ccc(F)cc1 [Compound 2, N‐(Benzo[d]thiazol‐2‐yl)‐4‐fluorobenzamide] |  | 1.239 |  | 1.884 |  | 17 ± 0.67 | 3.879 ± 0.868 | 11.2 ± 0.49 | 21.02 ± 0.21 |
| O=C(Nc1nc2ccccc2s1)c1cccs1 [Compound 3, N‐(Benzo[d]thiazol‐2‐yl) thiophene‐2‐carboxamide] |  | 2.345 |  | 2.209 |  | 15 ± 0.57 | 0.43 ± 0.005 | 16 ± 0.46 | 35.2 ± 0.95 |
| O=C(Nc1nc2ccccc2s1)c1ccco1 [Compound 4, N‐(Benzo[d]thiazol‐2‐yl) furan‐2‐carboxamide] |  | 1.305 |  | 2.349 |  | 19.9 ± 0.36 | 8.529 ± 0.9 | 11.08 ± 0.08 | 26.03 ± 0.13 |
| O=C(Nc1nc2ccccc2s1)c1ccc(Br)cc1 [Compound 5, N‐(Benzo[d]thiazol‐2‐yl)‐4‐bromobenzamide] |  | 2.033 |  | 2.399 |  | 15.3 ± 0.32 |  | 12.9 ± 0.37 | 31 ± 0.66 |
| O=C(Nc1nc2ccccc2s1)c1ccc(C(F)(F)F)cc1 [Compound 6, N‐(Benzo[d]thiazol‐2‐yl)‐4‐(trifluoromethyl) benzamide] | 10.9 ± 0.28 | 2.197 | 13.5 ± 0.37 | 1.772 | 23.9 ± 0.32 |  |  |  |  |
| O=C(Nc1nc2ccccc2s1)c1ccccc1 [Compound 7, N‐(Benzo[d]thiazol‐2‐yl) benzamide] |  | 2.284 |  | 2.171 |  | 11.8 ± 0.57 |  | 12.4 ± 0.97 | 26.9 ± 0.97 |
| Cc1ccc(C(=O)Nc2nc3ccccc3s2)cc1 [Compound 8, N‐(Benzo[d]thiazol‐2‐yl)‐4‐methylbenzamide] |  | 1.238 |  | 1.373 |  | 5.2 ± 0.19 | 9.541 ± 0.099 | 4.69 ± 0.05 | 6.44 ± 0.05 |
| O=C(Nc1nc2ccccc2s1)c1ccc(Cl)cc1 [Compound 9, N‐(Benzo[d]thiazol‐2‐yl)‐4‐chlorobenzamide] |  | 1.068 |  | 1.842 |  | 6.02 ± 0.18 | 0.166 ± 0.015 | 3.49 ± 0.32 | 6.43 ± 0.05 |
| O=C(NCc1nc2ccccc2s1)c1ccccc1 [Compound 10, N‐(Benzo[d]thiazol‐2‐ylmethyl) benzamide] |  | 3.019 |  | 7.238 |  | 13.5 ± 0.54 | 0.535 ± 0.079 | 5.64 ± 0.34 | 40.82 ± 0.12 |
| O=C(NCc1nc2ccccc2s1)c1ccc(Cl)cc1 [Compound 11, N‐(Benzo[d]thiazol‐2‐ylmethyl)‐4‐chlorobenzamide] |  | 3.583 |  | 2.304 |  | 10 ± 0.36 |  | 15.6 ± 0.65 | 35.87 ± 0.23 |
| O=C(NCc1nc2ccccc2s1)c1ccc(F)cc1 [Compound 12, N‐(Benzo[d]thiazol‐2‐ylmethyl)‐4‐fluorobenzamide] |  | 2.869 |  | 2.038 |  | 15 ± 0.26 |  | 21.1 ± 0.46 | 43 ± 0.56 |
| O=C(NCc1nc2ccccc2s1)c1ccc(C(F)(F)F)cc1 [Compound 13, N‐(Benzo[d]thiazol‐2‐ylmethyl)‐4‐(trifluoromethyl) benzamide] | 10 ± 0.43 | 3.273 | 12.9 ± 0.86 | 2.534 | 32.8 ± 0.43 |  |  |  |  |
| O=C(NCc1nc2ccccc2s1)c1cccs1 [Compound 14, N‐(Benzo[d]thiazol‐2‐ylmethyl) thiophene‐2‐carboxamide] |  | 1.391 |  | 2.096 |  | 16 ± 0.68 | 0.199 ± 0.011 | 10.6 ± 0.16 | 22.2 ± 0.68 |
| O=C(NCc1nc2ccccc2s1)c1ccc(Br)cc1 [Compound 16, N‐(Benzo[d]thiazol‐2‐ylmethyl)‐4‐bromobenzamide] |  | 1.766 |  | 2.536 |  | 20.25 ± 0.19 |  | 14.1 ± 0.95 | 35.8 ± 0.46 |
| COc1ccc(OC)c(CC(=O)Nc2nc3ccccc3s2)c1 [Compound 20, N‐(Benzo[d]thiazol‐2‐yl)‐2‐(2,5‐dimethoxyphenyl) acetamide] | 16.07 ± 0.12 | 5.464 | 14.7 ± 0.15 | 5.977 | 87.8 ± 1.29 |  |  |  |  |
| COc1ccc(CC(=O)Nc2nc3ccccc3s2)cc1 [Compound 24, N‐(Benzo[d]thiazol‐2‐yl)‐2‐(4‐methoxyphenyl) acetamide] | 12.9 ± 0.19 | 6.306 | 12.7 ± 0.18 | 6.440 | 81.5 ± 1.07 |  |  |  |  |
| O=C(Cc1cccs1)Nc1nc2ccccc2s1 [Compound 25, N‐(Benzo[d]thiazol‐2‐yl)‐2‐(thiophen‐2‐yl) acetamide] | 14.4 ± 0.18 | 9.360 | 13.21 ± 0.03 | 10.189 | 135 ± 1.83 |  |  |  |  |
| COc1cccc(CC(=O)NCc2nc3ccccc3s2)c1 [Compound 26, N‐(Benzo[d]thiazol‐2‐ylmethyl)‐2‐(3‐methoxyphenyl) acetamide] | 15.8 ± 0.52 | 1.753 | 13.5 ± 0.35 | 2.047 | 27.7 ± 0.78 |  |  |  |  |
| O=C(Cc1ccc(Cl)cc1)NCc1nc2ccccc2s1 [Compound 27, N‐(Benzo[d]thiazol‐2‐ylmethyl)‐2‐(4‐chlorophenyl) acetamide] | 14.7 ± 0.63 | 2.243 | 12.3 ± 0.96 | 2.666 | 32.9 ± 0.35 |  |  |  |  |
| COc1cccc2c1C(=O)c1c(O)c3c(c(O)c1C2=O)C[C@@](O)(C(=O)CO)C[C@@H]3O[C@H]1C[C@H](N)[C@H](O)[C@H](C)O1 [Doxorubicin, reference compound] |  | 2.584 |  | 4.131 |  | 9.27 ± 0.21 |  | 5.8 ± 0.15 | 24 ± 1.07 |
